Experimental data published in the supplement of paper PMC13380429.

How the values were obtained:
[1] = test system: A549-ACE2 infected with SARS-CoV-2; test: morphology score (similarity to uninfected cells); higher = more like uninfected cells; details: 24 h
[2] = test system: A549-ACE2 infected with SARS-CoV-2; test: SARS-CoV-2 infection rate relative to DMSO; higher = more infection; details: 24 h
U2OS [3] = test: cell viability relative to DMSO; higher = less toxic; details: 72 h
Calu-3 [4] = test: as above; details: 72 h
Vero E6 [5] = test: as above; details: 72 h
Caco-2 [6] = test: as above; details: 72 h
HepG2 [7] = test: as above; details: 72 h
A549-ACE2 [8] = test: drug-induced phospholipidosis relative to tamoxifen; higher = more phospholipidosis
A549-ACE2 [9] = test: phospholipidosis EC50; higher = less potent phospholipidosis inducer
U2OS [10] = test: drug sensitivity score (DSS) for viability; higher = more toxic; extreme values may be limits of the assay; details: 72 h
Calu-3 [11] = test: as above; details: 72 h
Vero E6 [12] = test: as above; details: 72 h
Caco-2 [13] = test: as above; details: 72 h
HepG2 [14] = test: as above; details: 72 h
U2OS [15] = test: relative viability EC50 (midpoint between 100% and the lowest measured viability); higher = less toxic; details: 72 h
Calu-3 [16] = test: as above; details: 72 h
Vero E6 [17] = test: as above; details: 72 h
[18] = test system: A549-ACE2 infected with SARS-CoV-2; test: cell count relative to DMSO; higher = less toxic; details: 24 h
Caco-2 [19] = test: relative viability EC50 (midpoint between 100% and the lowest measured viability); higher = less toxic; details: 72 h
HepG2 [20] = test: as above; details: 72 h

C[C@@H](O[C@H]1OCCN(Cc2nn[nH]c2CN(C)C)[C@H]1c1ccc(F)cc1)c1cc(C(F)(F)F)cc(C(F)(F)F)c1
Details | SARS-CoV-2 infection rate [%] | cell count [%] | cell viability [%] | morphology score | phospholipidosis EC50 [µM]
A549-ACE2 [9], 24 h | – | – | – | – | 3.41
A549-ACE2 [9], 48 h | – | – | – | – | 3.74
A549-ACE2 [9], 72 h | – | – | – | – | 4.73
Caco-2 [6], 1 nM | – | – | 97 | – | –
Caco-2 [6], 10 nM | – | – | 94.6 | – | –
Caco-2 [6], 100 nM | – | – | 99.9 | – | –
Caco-2 [6], 1000 nM | – | – | 103 | – | –
Caco-2 [6], 10000 nM | – | – | 70.7 | – | –
Calu-3 [4], 1 nM | – | – | 93.6 | – | –
Calu-3 [4], 10 nM | – | – | 93.9 | – | –
Calu-3 [4], 100 nM | – | – | 91.8 | – | –
Calu-3 [4], 1000 nM | – | – | 97.5 | – | –
Calu-3 [4], 10000 nM | – | – | 75.1 | – | –
HepG2 [7], 1 nM | – | – | 90.8 | – | –
HepG2 [7], 10 nM | – | – | 91.5 | – | –
HepG2 [7], 100 nM | – | – | 87.5 | – | –
HepG2 [7], 1000 nM | – | – | 110 | – | –
HepG2 [7], 10000 nM | – | – | 69.1 | – | –
U2OS [3], 1 nM | – | – | 98.8 | – | –
U2OS [3], 10 nM | – | – | 96.9 | – | –
U2OS [3], 100 nM | – | – | 105 | – | –
U2OS [3], 1000 nM | – | – | 98.6 | – | –
U2OS [3], 10000 nM | – | – | 75.9 | – | –
Vero E6 [5], 1 nM | – | – | 91 | – | –
Vero E6 [5], 10 nM | – | – | 102 | – | –
Vero E6 [5], 100 nM | – | – | 95 | – | –
Vero E6 [5], 1000 nM | – | – | 96.9 | – | –
Vero E6 [5], 10000 nM | – | – | 82.8 | – | –
[1], 0.3 µM | – | – | – | 0.33 | –
[1], 3 µM | – | – | – | 0.54 | –
[1], 10 µM | – | – | – | 0.79 | –
[1], 30 µM | – | – | – | 0.29 | –
[2], 0.3 µM | 94 | – | – | – | –
[2], 3 µM | 67 | – | – | – | –
[2], 10 µM | 21 | – | – | – | –
[2], 30 µM | 29 | – | – | – | –
[18], 0.3 µM | – | 104 | – | – | –
[18], 3 µM | – | 107 | – | – | –
[18], 10 µM | – | 114 | – | – | –
[18], 30 µM | – | 96 | – | – | –

drug-induced phospholipidosis [%], A549-ACE2 [8]
Details | 0.3 µM | 0.833333 µM | 3.33333 µM | 6.66667 µM | 10 µM
24 h | 0.77 | 3.06 | 53.9 | 92.5 | 102
48 h | 1.56 | 0.335 | 38.1 | 83.7 | 91.7
72 h | 2.71 | 0.0731 | 32.7 | 80.6 | 99.1

Details | drug sensitivity score | relative viability EC50 [µM]
Caco-2 [13] | 1.1 | –
Calu-3 [11] | 1.3 | –
Calu-3 [16] | – | > 10
HepG2 [14] | 0.9 | –
U2OS [10] | 1.1 | –
U2OS [15] | – | > 10
Vero E6 [12] | 0.7 | –
Vero E6 [17] | – | > 10

Nc1nc(NC[C@H]2CC[C@H](CNS(=O)(=O)c3cccc4ccccc34)CC2)nc2ccccc12
Details | SARS-CoV-2 infection rate [%] | cell count [%] | cell viability [%] | morphology score | phospholipidosis EC50 [µM]
A549-ACE2 [9], 24 h | – | – | – | – | 1.03
A549-ACE2 [9], 48 h | – | – | – | – | 3.12
A549-ACE2 [9], 72 h | – | – | – | – | 6.11
Caco-2 [6], 1 nM | – | – | 102 | – | –
Caco-2 [6], 10 nM | – | – | 97.4 | – | –
Caco-2 [6], 100 nM | – | – | 93.8 | – | –
Caco-2 [6], 1000 nM | – | – | 95 | – | –
Caco-2 [6], 10000 nM | – | – | 12.7 | – | –
Calu-3 [4], 1 nM | – | – | 89.3 | – | –
Calu-3 [4], 10 nM | – | – | 95.8 | – | –
Calu-3 [4], 100 nM | – | – | 98.8 | – | –
Calu-3 [4], 1000 nM | – | – | 98.1 | – | –
Calu-3 [4], 10000 nM | – | – | 0.9 | – | –
HepG2 [7], 1 nM | – | – | 98.2 | – | –
HepG2 [7], 10 nM | – | – | 99.6 | – | –
HepG2 [7], 100 nM | – | – | 101 | – | –
HepG2 [7], 1000 nM | – | – | 86.3 | – | –
HepG2 [7], 10000 nM | – | – | 0.8 | – | –
U2OS [3], 1 nM | – | – | 101 | – | –
U2OS [3], 10 nM | – | – | 101 | – | –
U2OS [3], 100 nM | – | – | 98.5 | – | –
U2OS [3], 1000 nM | – | – | 96.8 | – | –
U2OS [3], 10000 nM | – | – | 3.6 | – | –
Vero E6 [5], 1 nM | – | – | 97 | – | –
Vero E6 [5], 10 nM | – | – | 95.8 | – | –
Vero E6 [5], 100 nM | – | – | 99.9 | – | –
Vero E6 [5], 1000 nM | – | – | 91.6 | – | –
Vero E6 [5], 10000 nM | – | – | 4 | – | –
[1], 0.1 µM | – | – | – | 0.06 | –
[1], 0.3 µM | – | – | – | -0.01 | –
[1], 1 µM | – | – | – | 0.19 | –
[1], 3 µM | – | – | – | 0.63 | –
[2], 0.1 µM | 101 | – | – | – | –
[2], 0.3 µM | 95 | – | – | – | –
[2], 1 µM | 90 | – | – | – | –
[2], 3 µM | 12 | – | – | – | –
[18], 0.1 µM | – | 105 | – | – | –
[18], 0.3 µM | – | 101 | – | – | –
[18], 1 µM | – | 101 | – | – | –
[18], 3 µM | – | 123 | – | – | –

drug-induced phospholipidosis [%], A549-ACE2 [8]
Details | 0.3 µM | 0.833333 µM | 3.33333 µM | 6.66667 µM | 10 µM | 30 µM
24 h | 4.45 | 16.1 | 78.1 | 111 | 51.3 | 58.3
48 h | 5.61 | 11.2 | 82 | 124 | – | –
72 h | 6.01 | 9.91 | 62.8 | 129 | – | –

Details | drug sensitivity score | relative viability EC50 [µM]
Caco-2 [13] | 5.6 | –
Caco-2 [19] | – | 2.71
Calu-3 [11] | 5.8 | –
Calu-3 [16] | – | 3.03
HepG2 [14] | 7.8 | –
HepG2 [20] | – | 2.06
U2OS [10] | 5.8 | –
U2OS [15] | – | 2.92
Vero E6 [12] | 6.7 | –
Vero E6 [17] | – | 2.44

CN1C2CCC1CC(OC(c1ccccc1)c1ccc(Cl)cc1)C2 (stereo not given) [3-CPMT]
Details | SARS-CoV-2 infection rate [%] | cell count [%] | cell viability [%] | morphology score | phospholipidosis EC50 [µM]
A549-ACE2 [9], 24 h | – | – | – | – | 3.84
A549-ACE2 [9], 48 h | – | – | – | – | 4.5
A549-ACE2 [9], 72 h | – | – | – | – | 4.56
Caco-2 [6], 1 nM | – | – | 94.2 | – | –
Caco-2 [6], 10 nM | – | – | 89.7 | – | –
Caco-2 [6], 100 nM | – | – | 91.5 | – | –
Caco-2 [6], 1000 nM | – | – | 94.9 | – | –
Caco-2 [6], 10000 nM | – | – | 76.4 | – | –
Calu-3 [4], 1 nM | – | – | 107 | – | –
Calu-3 [4], 10 nM | – | – | 109 | – | –
Calu-3 [4], 100 nM | – | – | 106 | – | –
Calu-3 [4], 1000 nM | – | – | 91.3 | – | –
Calu-3 [4], 10000 nM | – | – | 55.1 | – | –
HepG2 [7], 1 nM | – | – | 99.3 | – | –
HepG2 [7], 10 nM | – | – | 110 | – | –
HepG2 [7], 100 nM | – | – | 97.6 | – | –
HepG2 [7], 1000 nM | – | – | 98.6 | – | –
HepG2 [7], 10000 nM | – | – | 59.5 | – | –
U2OS [3], 1 nM | – | – | 104 | – | –
U2OS [3], 10 nM | – | – | 96.9 | – | –
U2OS [3], 100 nM | – | – | 100 | – | –
U2OS [3], 1000 nM | – | – | 97.1 | – | –
U2OS [3], 10000 nM | – | – | 72.6 | – | –
Vero E6 [5], 1 nM | – | – | 93.5 | – | –
Vero E6 [5], 10 nM | – | – | 97.3 | – | –
Vero E6 [5], 100 nM | – | – | 94.5 | – | –
Vero E6 [5], 1000 nM | – | – | 96.6 | – | –
Vero E6 [5], 10000 nM | – | – | 70.6 | – | –
[1], 0.1 µM | – | – | – | -0.03 | –
[1], 0.3 µM | – | – | – | -0.04 | –
[1], 1 µM | – | – | – | 0.58 | –
[1], 3 µM | – | – | – | 0.88 | –
[2], 0.1 µM | 108 | – | – | – | –
[2], 0.3 µM | 96 | – | – | – | –
[2], 1 µM | 74 | – | – | – | –
[2], 3 µM | 32 | – | – | – | –
[18], 0.1 µM | – | 105 | – | – | –
[18], 0.3 µM | – | 99 | – | – | –
[18], 1 µM | – | 116 | – | – | –
[18], 3 µM | – | 123 | – | – | –

drug-induced phospholipidosis [%], A549-ACE2 [8]
Details | 0.3 µM | 0.833333 µM | 3.33333 µM | 6.66667 µM | 10 µM | 30 µM
24 h | 4.71 | 3.97 | 55.2 | 83.2 | 94.4 | 114
48 h | 7.06 | 3.72 | 51.9 | 88.1 | 103 | 126
72 h | 7.88 | 7.28 | 40 | 85.2 | 102 | –

Details | drug sensitivity score | relative viability EC50 [µM]
Caco-2 [13] | 1.3 | –
Caco-2 [19] | – | > 10
Calu-3 [11] | 3.7 | –
HepG2 [14] | 2.2 | –
U2OS [10] | 1.6 | –
Vero E6 [12] | 1.8 | –
